Data from PubChem BioAssay (NCI).
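Grown in 96-well plates, cells were treated for 48 hours with each compound at five concentrations. Insufficient inhibition: endpoint recorded as highest concentration tested. GI50 is the concentration that inhibits growth by half. At the TGI there is no net growth.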

Experiments:
Experiment in all cases: inhibition of tumour cell growth, NCI panel, 48 h
HOP-92 NSCLC = test system: HOP-92 NSCLC
K-562 leukemia = test system: K-562 leukemia
U251 CNS = test system: U251 CNS
NCI-H522 lung = test system: NCI-H522 lung
NCI-H23 lung = test system: NCI-H23 lung
MCF7 breast = test system: MCF7 breast
NCI-H460 lung = test system: NCI-H460 lung
CAKI-1 renal = test system: CAKI-1 renal
SN12C renal = test system: SN12C renal
UACC-257 melanoma = test system: UACC-257 melanoma

| SMILES | GI50 (HOP-92 NSCLC) [µM] | TGI (HOP-92 NSCLC) [µM] | GI50 (K-562 leukemia) [µM] | TGI (K-562 leukemia) [µM] | GI50 (U251 CNS) [µM] | TGI (U251 CNS) [µM] | GI50 (NCI-H522 lung) [µM] | TGI (NCI-H522 lung) [µM] | GI50 (NCI-H23 lung) [µM] | TGI (NCI-H23 lung) [µM] | GI50 (MCF7 breast) [µM] | TGI (MCF7 breast) [µM] | GI50 (NCI-H460 lung) [µM] | TGI (NCI-H460 lung) [µM] | GI50 (CAKI-1 renal) [µM] | TGI (CAKI-1 renal) [µM] | GI50 (SN12C renal) [µM] | TGI (SN12C renal) [µM] | GI50 (UACC-257 melanoma) [µM] | TGI (UACC-257 melanoma) [µM] |
| --- | --- | --- | --- | --- | --- | --- | --- | --- | --- | --- | --- | --- | --- | --- | --- | --- | --- | --- | --- | --- |
| O=C(NCc1ccc(Cn2c(=O)sn(-c3ccccc3)c2=O)cc1)OCc1ccc2cccc(O)c2n1 | 0.459 | 1.97 | 0.403 | > 100 | 1.47 | 2.92 | 0.407 | 1.69 | 1.46 | 3.06 | 0.331 | 2.12 | 1.41 | 3.13 | 0.479 | 1.84 | 0.907 | 2.24 | 1.37 | 3.01 |
| O=C1Nc2ccccc2/C1=C1\CCc2cc(O)ccc21 | 5.93 | 22.8 | 9.09 | > 25 | 8.84 | > 25 | 9.85 | > 25 | 7.07 | > 25 | 2.74 | > 25 | 8.7 | > 25 | 7.12 | > 25 | 7.84 | > 25 | 9.47 | > 25 |
| COc1cc(/C=C\c2cc(OC)c(OC)c(OC)c2)cc(N/C=C\C(=O)c2c[nH]c3ccccc23)c1OC | 1.5 | 4.5 | 1.54 | > 100 | 3.84 | 15.7 | 1.76 | 3.7 | 3.75 | 16.2 | 0.72 | 3.15 | 5.6 | 27.1 | 1.58 | 2.95 | 2.44 | 7.13 | 3.17 | 10.8 |
| CCCC/C(=C\C1=C(C)C(=O)C(OC)=C(OC)C1=O)C(=O)O | 23.5 | 86.7 | 50.1 | > 100 | > 100 | > 100 | > 100 | > 100 | > 100 | > 100 | > 100 | > 100 | > 100 | > 100 | > 100 | > 100 | > 100 | > 100 | > 100 | > 100 |
| COc1ccc(C(CC(=O)c2ccc3c(c2)OCO3)c2c(O)c3ccccc3oc2=O)cc1OC (configuration not stated) |  | > 100 |  | > 100 |  | > 100 |  | > 100 |  | > 100 |  | > 100 |  | > 100 |  | > 100 |  | > 100 |  | > 100 |
| Nc1ccccc1O.O.O=C(O)C1[O][Sb][O]C1C(=O)O (configuration not stated) | 21 | 40.2 | 3.77 | > 36.1 | 13.8 | 27.8 | 2.17 | 6.24 | 17.6 | 44.2 | 12.6 | 37.7 | 21.6 | 58.5 | 3.78 | 12.3 | 7.7 | 21.3 | 14.1 | 28 |
| CCC/C=C/C=C/C1CC(O)C(O)C(=O)C1CO (configuration not stated) |  | > 100 |  | > 100 |  | > 100 |  | > 100 |  | > 100 |  | > 100 |  | > 100 |  | > 100 |  | > 100 |  | > 100 |
| COc1cc2c(cc1O)CCN[C@]21CS[C@@H]2c3c(OC(C)=O)c(C)c4c(c3[C@H](COC1=O)N1[C@@H]2[C@H]2c3c(cc(C)c(OC)c3O)C[C@@H]([C@@H]1O)N2C)OCO4 | 0.00273 | 0.0518 |  | 7.98 |  | 1.02 |  | 0.00746 |  | 0.0057 |  | 0.979 |  | 0.808 |  | 1.36 |  | 3.9 |  | 0.00557 |
| CO[C@H]1Nc2c(ccc(C)c2O)C(=O)N2C=C(/C=C/C(N)=O)C[C@@H]12 |  | 0.217 |  | 27.8 |  | 10.8 |  | 0.182 |  | 0.354 |  | 8.05 |  | 31.1 |  | 0.211 |  | 1.05 |  | 0.134 |
| N[C@H](CCC(=O)N[C@@H](Cc1c[nH]c2ccccc12)C(=O)O)C(=O)O | > 100 | > 100 | > 100 | > 100 | > 100 | > 100 | > 100 | > 100 | > 100 | > 100 | > 100 | > 100 | > 100 | > 100 | > 100 | > 100 | > 100 | > 100 | > 100 | > 100 |
| O=C(c1ccco1)c1c(C(F)(F)F)n([O-])c2ccc(C(F)(F)F)cc2[n+]1=O | 0.28 | 0.718 | 0.287 | 0.765 | 0.217 | 0.536 | 0.462 | 1.16 | 0.853 | 2.3 | 0.307 | 0.872 | 0.434 | 1.57 | 0.224 | 0.49 | 0.255 | 0.556 | 1.49 | 3.06 |
| Cc1cc(Nc2nc(-c3cn(-c4ccc(Cl)cc4)nn3)nc3ccccc23)n[nH]1 | 23.6 | > 50 | 25.8 | > 50 | 9.39 | > 50 | > 50 | > 50 |  |  | 27 | > 50 | 5.65 | 36.3 | 2.31 | 14.7 | 10.7 | > 50 | 33.4 | > 50 |
| COc1cc2c(Nc3cc(Cl)c(OC)c(Cl)c3)c(C#N)cnc2cc1OCCCN1CCN(C)CC1 | 7.83 | 19.4 | 0.574 | 8.41 | 1.92 | 4.05 | 0.365 | 2.17 | 1.54 | 4.89 | 2.58 | 12.6 | 1.91 | 8.47 | 0.606 | 15.1 | 0.95 | 17.2 | 1.67 | 3.07 |
| COc1ccc(-c2nn(-c3cccc(Cl)c3)cc2-c2cc(-c3ccccc3)[nH]c(=O)c2C#N)cc1 | 0.654 | 2.14 | 9.22 | > 50 | 1.48 | 6.76 | 3.59 | 20.8 | 2.46 | 13.6 | 9.02 | > 50 | 2.35 | > 50 | 1.3 | 6.09 | 7.94 | > 50 |  |  |
